According to patent publication US4752614A, “Pharmaceutical compositions of tellerium and selenium compounds for the induction of in vivo and in vitro production of cytokines” (Bar-Ilan University, priority 1987, dated 1988):
“And” between values parts separate entries of the source, which are not always exact repeats. Equal values may be shown once. Read-outs that look alike come from different tables or passages of the source.

Assays:
[1] = system: IL-2; assay: In vitro induction of IL-2 from mouse spleen cells (Example 7); type: cell-based, male Balb-c mice
Description: (§1) This example describes the in vitro making of IL-2 and CSF from mouse spleen cells using the compound of Example 1 as the extrinsic stimulating agent.
(§2) Spleens were removed from 15, male Balb-c mice 6 to 8 weeks of age. The spleen cells were pushed through stainless steel 60 mesh (U.S. standard) nets resting in 5 mm Petri dishes containing PBS in order to separate the cells. The cells were then collected into centrifuge tubes and spun at 1000 rpm for 10 minutes. The supernatant was discarded and cells were treated with 5 ml of hypotonic buffer (0.15M NH4 Cl; 0.01M KHCO3 dissolved in double distilled water, pH 7.2) for exactly two minutes. Thereafter, PBS was added to the cells and the test tubes were centrifuged for 10 minutes at 1000 rpm. The cells were rinsed twice and counted in a heamocytometer using trypan blue to test for viability. The cells were brought to a concentration of 10^7 viable cells/ml. The cells were contacted with varying amounts of the compound of Example 1 in 1 ml of 40% DMSO 60% PBS.

[2] = system: CSF; assay: In vitro induction of colony stimulating factor (CSF) from mouse spleen cells (Example 7); type: cell-based, male Balb-c mice
Description: as §1, §2

[3] = Dissolution in aqueous vehicles; type: physicochemical; conditions: organic solvent or mixture, read-out: solubility (will dissolve)
From the text: The invention also contemplates a method for dissolving the compounds of the invention in an aqueous vehicle. This method comprises the use of ultrasound or mechanical agitation for an extended period of time which will dissolve the compound. Generally ultrasound is produced by a transformer which transforms 50/60 hertz, line voltage AC into high frequency electrical energy which is coupled to a transducer. By using piezoelectric ceramics, electrical frequency is converted into mechanical vibration. Typical amplitudes of 0.0003 for 40 k Hz equipment and 0.00007 to 0.001 for 20 k Hz equipment are useful. The transducer may be provided with a booster that is connected to a horn that has means for conducting the ultrasound to a container that holds the liquid for dissolving the compounds of the invention. Useful devices include small scale ultrasonic cleaners such as the Bronson instrument. […] The time required for this is usually 3 hours to 24 hours. High speed mechanical shakers such as a Tutenhauer shaker or waring blenders may be used for this purpose. The use of an electically operated agitator will cause the compounds to form a solution or dispersion after about 3 to 4 hours of agitation.
Using stirring 5.0 mg of the compound of Example 1 is dissolved under sterile conditions in 20 ml of glycerol. Thereafter 80 ml of PBS is added to form a solution containing 10 μg/0.2 ml.
It has been determined that the compound of Example 1 will dissolve as follows: […]

[4] = system: IL-2 receptors; assay: Induction of IL-2 receptors of human mononuclear cells, proliferation with recombinant IL-2 (Example 18); type: cell-based
Description: Human MNC were brought to a concentration of 10^6 cells/ml. RPMI+10% FCS. Aliquots of 0.2 ml. were placed in duplicate wells of microdishes and plates were incubated at 37° C. for 24 hrs. […] Plates were further incubated for 48 hrs. and labelled with 3H thymidine 24 hrs. before harvesting.
The proliferation was measured by ^3 HT uptake as described by Gillis et al, J. Immunol. […] The results are expressed in counts per minute.

[5] = system: WNV; assay: WNV yield in mouse macrophage cultures (Example 23); type: cell-based, ICR mouse macrophage; conditions: 72 h; for Virus Yield: preliminary
Description: Varying amounts of the compound of Example 1 (5 μg, 1 μg, 0.1 μg) were incubated with a monolayer of mouse macrophages for 24 h. […] All cultures were then infected with 10^4 PFU/plate. After 72 h incubation the supernatants were collected and the virus was titrated against Vera cells.

## Cl[TeH]1(Cl)(Cl)OCCO1 [Example 1]
[1]; 5 pg
  IL-2: 12,000 cpm
[1]; 50 pg
  IL-2: 38,000 cpm
[1]; 500 pg
  IL-2: 30,000 cpm
[1]; 5 ng
  IL-2: 15,000 cpm
[1]; 50 ng
  IL-2: 6,000 cpm
[1]; 500 ng
  IL-2: 5,000 cpm
[1]; 5 μg
  IL-2: 5,000 cpm
[1]; 50 μg
  IL-2: 5,000 cpm
[2]; 5 pg
  CSF: 140 colonies/dish
[2]; 50 pg
  CSF: 260 colonies/dish
[2]; 500 pg
  CSF: 175 colonies/dish
[2]; 5 ng
  CSF: 120 colonies/dish
[2]; 50 ng
  CSF: 75 colonies/dish
[2]; 500 ng
  CSF: 25 colonies/dish
[2]; 5 μg
  CSF: 5 colonies/dish
[2]; 50 μg
  CSF: 2 colonies/dish
[3]; 10% glycerol/90% pbs
  solubility: 1000 µg/mL
[3]; 20% glycerol/80% pbs
  solubility: 1300 µg/mL
[3]; 40% glycerol/60% pbs
  solubility: 6000 µg/mL
[4]; Test A, 1 μg/ml
  proliferation (3HT uptake): 28625 counts per minute and 27593 counts per minute
[4]; Test A, 1 × 10^-3 μg/ml
  proliferation (3HT uptake): 3652 counts per minute and 5055 counts per minute
[4]; Test A, 1 × 10^-4 μg/ml
  proliferation (3HT uptake): 3558 counts per minute and 4047 counts per minute
[4]; Test A, 1 × 10^-5 μg/ml
  proliferation (3HT uptake): 2474 counts per minute and 4063 counts per minute
[4]; Test A, 5 × 10^-1 μg/ml
  proliferation (3HT uptake): 120755 counts per minute and 105943 counts per minute
[4]; Test B, 1 μg/ml
  proliferation (3HT uptake): 23488 counts per minute
[4]; Test B, 1 × 10^-2 μg/ml
  proliferation (3HT uptake): 6057 counts per minute
[4]; Test B, 1 × 10^-3 μg/ml
  proliferation (3HT uptake): 5865 counts per minute
[4]; Test B, 1 × 10^-4 μg/ml
  proliferation (3HT uptake): 4960 counts per minute
[4]; Test B, 1 × 10^-5 μg/ml
  proliferation (3HT uptake): 7155 counts per minute
[4]; Test B, 5 × 10^-1 μg/ml
  proliferation (3HT uptake): 66910 counts per minute
[4]; Test B, 5 × 10^-2 μg/ml
  proliferation (3HT uptake): 5390 counts per minute
[4]; Test B, 7 × 10^-1 μg/ml
  proliferation (3HT uptake): 17620 counts per minute
[5]; 0.1 μg
  reduction of virus yield: ten
[5]; 0.1 μg/plate
  Virus Yield: 2 × 10^3 PFU/ml
[5]; 1 μg
  reduction of virus yield: 40 fold
[5]; μg/plate (text: 1 μg)
  Virus Yield: 5 × 10^2 PFU/ml
